The text below walks through data of US11591355B2 (Peloton Therapeutics, Inc., priority 2017, dated 2023).

Test [1] has as its target T1, Human CD73 (Homo sapiens, UniProt P21589).
T1 construct: purchased R&D Systems; host or cells: CHO cells
T1 sequence (P21589 27-549): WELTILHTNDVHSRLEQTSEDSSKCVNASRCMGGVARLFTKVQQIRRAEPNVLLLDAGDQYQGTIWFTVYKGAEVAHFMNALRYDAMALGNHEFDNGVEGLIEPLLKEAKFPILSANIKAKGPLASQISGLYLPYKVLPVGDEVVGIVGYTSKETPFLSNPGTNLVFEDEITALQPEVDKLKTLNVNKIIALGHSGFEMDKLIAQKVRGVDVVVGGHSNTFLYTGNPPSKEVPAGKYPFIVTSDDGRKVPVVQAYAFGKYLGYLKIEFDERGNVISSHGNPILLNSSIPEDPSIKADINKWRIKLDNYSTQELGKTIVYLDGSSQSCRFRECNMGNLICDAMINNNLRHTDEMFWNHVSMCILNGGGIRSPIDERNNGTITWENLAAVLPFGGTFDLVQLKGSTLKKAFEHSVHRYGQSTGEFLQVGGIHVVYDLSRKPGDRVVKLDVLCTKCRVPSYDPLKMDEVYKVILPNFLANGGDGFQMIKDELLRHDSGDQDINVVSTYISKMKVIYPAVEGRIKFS
Description: CD73 Enzyme Assay. Format: biochemical. The note with it: 0.25 nM hCD73, 25 μM AMP, kinetic read at 360 nm; read-out: CD73 Enzyme Assay IC50.

In test [2] the target is T2, CD73 on U138 human neuroglioma cells (Homo sapiens, UniProt P21589).
T2 construct: U138 cells were obtained from ATCC and cultured in DMEM with 10% FBS; host or cells: U138 human neuroglioma cells
T2 sequence (P21589 27-549): T1 sequence (P21589 27-549)
Nature of the test: CD73 Cell-Based Assay. The note with it: U138 cells, AMP substrate, 2 hours at 37° C., inorganic phosphate by malachite green. Put shortly: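 Whole U138 cells washed free of phosphate were incubated with 200 μM AMP (mixture concentration before equal-volume addition) plus compound in HEPES-buffered saline, pH 7.4, for 2 h at 37 °C, 5% CO2. Adenosine-forming activity read as inorganic phosphate released into supernatant by malachite green.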

For the compound `O=P(O)(O)COC[C@H]1O[C@@H](n2cnc3c(NCc4ccccc4)ncnc32)[C@H](O)[C@@H]1O` [Compound 1, [(2R,3S,4R,5R)-5-[6-(benzylamino)purin-9-yl]-3,4-dihydroxy-tetrahydrofuran-2-yl]methoxymethyl-phosphonic acid], the IC50 in test [1] and in test [2] was > 1000 nM each time.
`Cc1cn([C@@H]2O[C@H](COCP(=O)(O)O)[C@@H](O)[C@H]2O)c2nc(Cl)nc(NC3CCCC3)c12` [Compound 199, [(2R,3S,4R,5R)-5-[2-chloro-4-(cyclopentyl-amino)-5-methyl-pyrrolo[2,3-d]-pyrimidin-7-yl]-3,4-dihydroxy-tetrahydro-furan-2-yl]methoxy-methylphosphonic acid]: the IC50 in test [1] and in test [2] was > 1000 nM throughout.
With `O=P(O)(O)COC[C@H]1O[C@@H](n2ncc3c(NC4CC5CC5C4)nc(Cl)nc32)[C@H](O)[C@@H]1O` (stereo partly drawn) [Compound 279, [(2R,3S,4R,5R)-5-[4-(3-bicyclo[3.1.0]hexa-nylamino)-6-chloro-pyrazolo[3,4-d]-pyrimidin-1-yl]-3,4-dihydroxy-tetrahydro-furan-2-yl]methoxy-methylphosphonic acid], the concentration for half-maximal inhibition (IC50) in test [1] and in test [2] was < 10 nM each time.
On to `O=P(O)(O)CS(=O)(=O)C[C@H]1O[C@@H](n2ccc3c(NC4CCCCC4)nc(Cl)nc32)[C@H](O)[C@@H]1O` [Compound 174, [(2S,3S,4R,5R)-5-[2-chloro-4-(cyclohexyl-amino)pyrrolo[2,3-d]-pyrimidin-7-yl]-3,4-dihydroxy-tetrahydro-furan-2-yl]methyl-sulfonylmethylphos-phonic acid], for which the IC50 in test [1] and in test [2] was < 10 nM each time.
As to `O=P(O)(O)COC[C@H]1O[C@@H](n2ncc3c(NC4CCCC4)nc(Cl)nc32)[C@H](O)[C@@H]1O` [Compound 240, ((((2R,3S,4R,5R)-5-(6-chloro-4-(cyclopentylamino)-1H-pyrazolo[3,4-d]pyrimidin-1-yl)-3,4-dihydroxytetrahydrofuran-2-yl)methoxy)methyl)phosphonic acid], the IC50 in test [1] and in test [2] was < 10 nM each time.
For the compound `C[C@@H](Nc1nc(C#N)nc2c1ccn2[C@@H]1O[C@H](COCP(=O)(O)O)[C@@H](O)[C@H]1O)c1ccc(C2CC2)cc1` [Compound 205, [(2R,3S,4R,5R)-5-[2-cyano-4-[[(1R)-1-(4-cyclopropylphenyl)-ethyl]amino]pyrrolo-[2,3-d]pyrimidin-7-yl]-3,4-dihydroxy-tetra-hydrofuran-2-yl]-methoxymethylphos-phonic acid], the IC50 in test [1] and in test [2] was < 10 nM throughout.
Regarding `C[C@H](Nc1nc(Cl)nc2c1ccn2[C@@H]1O[C@H](COCP(=O)(O)O)[C@@H](O)[C@H]1O)c1ccccc1F` [Compound 79, [(2R,3S,4R,5R)-5-[2-chloro-4-[[(1S)-1-(2-fluorophenyl)ethyl]-amino]pyrrolo[2,3-d]-pyrimidin-7-yl]-3,4-dihydroxy-tetrahydro-furan-2-yl]methoxy-methylphosphonic acid], the values for the half-inhibitory concentration (IC50) in test [1] and in test [2] were < 10 nM and 10 to 100 nM, respectively.
`O=P(O)(O)COC[C@H]1O[C@@H](n2ccc3c(NCc4ccccc4)nc(Cl)nc32)[C@H](O)[C@@H]1O` [Compound 56, [(2R,3S,4R,5R)-5-[4-(benzylamino)-2-chloro-pyrrolo[2,3-d]-pyrimidin-7-yl]-3,4-dihydroxy-tetrahydro-furan-2-yl]methoxy-methylphosphonic acid]: the 50% inhibitory concentration (IC50) in test [1] and in test [2] was 10 to 100 nM each time.
On to `C[C@H](c1ccccc1)N(C)c1nc(C#N)nc2c1ncn2[C@@H]1O[C@H](COCP(=O)(O)O)[C@@H](O)[C@H]1O` [Compound 113], for which the IC50 in test [1] and in test [2] was 10 to 100 nM in each case.
Regarding `C[C@@H](Nc1nc(Cl)nc2c1ccn2[C@@H]1O[C@H](CS(=O)(=O)CP(=O)(O)O)[C@@H](O)[C@H]1O)c1ccc(Cl)cc1` [Compound 179, [(2S,3S,4R,5R)-5-[2-chloro-4-[[(1R)-1-(4-chlorophenyl)ethyl]-amino]pyrrolo[2,3-d]-pyrimidin-7-yl]-3,4-dihydroxy-tetrahydro-furan-2-yl]methyl-sulfonylmethylphos-phonic acid], the half-maximal inhibitory concentration (IC50) in test [1] and in test [2] was < 10 nM each time.
On to `C[C@@H](Nc1nc(C#N)nc2c1ccn2[C@@H]1O[C@H](COCP(=O)(O)O)[C@@H](O)[C@H]1O)c1ccc(C(F)(F)F)cc1` [Compound 115, [(2R,3S,4R,5R)-5-[2-cyano-4-[[(1R)-1-[4-(trifluoromethyl)-phenyl]ethyl]amino]-pyrrolo[2,3-d]-pyrimidin-7-yl]-3,4-dihydroxy-tetrahydro-furan-2-yl]methoxy-methylphosphonic acid], for which the 50% inhibitory concentration (IC50) in test [1] was < 10 nM; in test [2] it was 10 to 100 nM.
On the same counts, the results for `C[C@@H](O)C#Cc1nc(NC2CCCC2)c2ccn([C@@H]3O[C@H](COCP(=O)(O)O)[C@@H](O)[C@H]3O)c2n1` [Compound 267, [(2R,3S,4R,5R)-5-[4-(cyclopentylamino)-2-[(3R)-3-hydroxybut-1-ynyl]pyrrolo[2,3-d]-pyrimidin-7-yl]-3,4-dihydroxy-tetrahydro-furan-2-yl]methoxy-methylphosphonic acid] are < 10 nM and < 10 nM.
As to `CC(C)(C)C(=O)OCOP(=O)(COC[C@H]1O[C@@H](n2ccc3c(N4CC5CCCC5C4)nc(Cl)nc32)[C@H](O)[C@@H]1O)OCOC(=O)C(C)(C)C` (stereo partly drawn) [Compound 203, [[(2R,3S,4R,5R)-5-[4-(3,3a,4,5,6,6a-hexa-hydro-1H-cyclopenta-[c]pyrrol-2-yl)-2-chloro-pyrrolo[2,3-d]-pyrimidin-7-yl]-3,4-dihydroxy-tetrahydro-furan-2-yl]methoxy-methyl-(2,2-dimethyl-propanoyloxymethoxy)-phosphoryl]oxymethyl 2,2-dimethylpropanoate], the results for the IC50 in test [1] and in test [2] were 100 to 1000 nM and 10 to 100 nM, respectively.
Consider `O=P(O)(O)COC[C@H]1O[C@@H](n2ccc3c(Sc4ccccc4)nc(Cl)nc32)[C@H](O)[C@@H]1O` [Compound 207, [(2R,3S,4R,5R)-5-(2-chloro-4-phenyl-sulfanyl-pyrrolo[2,3-d]-pyrimidin-7-yl)-3,4-dihydroxy-tetrahydro-furan-2-yl]methoxy-methylphosphonic acid], for which the IC50 in test [1] and in test [2] was 100 to 1000 nM each time.
For `C[C@@H](Nc1nc(Cl)nc2c1ccn2[C@@H]1O[C@H](COCP(=O)(O)O)[C@@H](O)[C@H]1O)c1ccccc1` [Compound 61, [(2R,3S,4R,5R)-5-[2-chloro-4-[[(1R)-1-phenylethyl]amino]pyrrolo[2,3-d]pyrimidin-7-yl]-3,4-dihydroxy-tetrahydrofuran-2-yl]methoxymethylphosphonic acid], the half-inhibitory concentration (IC50) in test [1] and in test [2] was < 10 nM in each case.
Regarding `CC(C)C(=O)COP(=O)(O)COC[C@H]1O[C@@H](n2ccc3c(NC4CCCC4)nc(Cl)nc32)[C@H](O)[C@@H]1O` [Compound 222, [(2R,3S,4R,5R)-5-[2-chloro-4-(cyclopentyl-amino)pyrrolo[2,3-d]-pyrimidin-7-yl]-3,4-dihydroxy-tetrahydro-furan-2-yl]methoxy-methyl-(3-methyl-2-oxo-butoxy)phosphinic acid], the IC50 in test [1] and in test [2] was 100 to 1000 nM throughout.
As to `N#Cc1nc(N2CC3CCCC3C2)c2ccn([C@@H]3O[C@H](COCP(=O)(O)O)[C@@H](O)[C@H]3O)c2n1` (stereo partly drawn) [Compound 201, [(2R,3S,4R,5R)-5-[4-(3,3a,4,5,6,6a-hexa-hydro-1H-cyclopenta-[c]pyrrol-2-yl)-2-cyano-pyrrolo[2,3-d]-pyrimidin-7-yl]-3,4-dihydroxy-tetrahydro-furan-2-yl]methoxy-methylphosphonic acid], the IC50 in test [1] and in test [2] was < 10 nM each time.
Consider `C[C@@H](Nc1nc(Cl)nc2c1ccn2[C@@H]1O[C@H](COCP(=O)(O)O)[C@@H](O)[C@H]1O)c1ccc(F)cn1` [Compound 135, [(2R,3S,4R,5R)-5-[2-chloro-4-[[(1R)-1-(5-fluoro-2-pyridyl)ethyl]-amino]pyrrolo[2,3-d]-pyrimidin-7-yl]-3,4-dihydroxy-tetrahydro-furan-2-yl]methoxy-methylphosphonic acid], for which the IC50 in test [1] lay within 100 to 1000 nM; in test [2], 10 to 100 nM.
On the same counts, the results for `C[C@H](Nc1nc(C#N)nc2c1cnn2[C@@H]1O[C@H](CS(=O)(=O)CP(=O)(O)O)[C@@H](O)[C@H]1O)c1ccc(F)cc1` [Compound 307, [(2S,3S,4R,5R)-5-[6-cyano-4-[[(1S)-1-(4-fluorophenyl)ethyl]-amino]pyrazolo[3,4-d]pyrimidin-1-yl]-3,4-dihydroxy-tetrahydro-furan-2-yl]methyl-sulfonylmethylphos-phonic acid] are 10 to 100 nM and < 10 nM.

As a reminder, the IC50 is the concentration that gives 50% inhibition.
